Broadly, the melting point is the temperature, or range, at which the solid turns liquid. A word on the IC50: it is the midpoint of a concentration-inhibition curve. By inhibition is commonly meant the share of the control response that was lost under treatment.

The target in data set [1] is T1, human CYP11B1 (Homo sapiens, UniProt P15538).
T1 construct: expressed in transfected cells; host or cells: V79 MZh11B1 (Chinese hamster lung fibroblasts)
T1 sequence (P15538 25-503): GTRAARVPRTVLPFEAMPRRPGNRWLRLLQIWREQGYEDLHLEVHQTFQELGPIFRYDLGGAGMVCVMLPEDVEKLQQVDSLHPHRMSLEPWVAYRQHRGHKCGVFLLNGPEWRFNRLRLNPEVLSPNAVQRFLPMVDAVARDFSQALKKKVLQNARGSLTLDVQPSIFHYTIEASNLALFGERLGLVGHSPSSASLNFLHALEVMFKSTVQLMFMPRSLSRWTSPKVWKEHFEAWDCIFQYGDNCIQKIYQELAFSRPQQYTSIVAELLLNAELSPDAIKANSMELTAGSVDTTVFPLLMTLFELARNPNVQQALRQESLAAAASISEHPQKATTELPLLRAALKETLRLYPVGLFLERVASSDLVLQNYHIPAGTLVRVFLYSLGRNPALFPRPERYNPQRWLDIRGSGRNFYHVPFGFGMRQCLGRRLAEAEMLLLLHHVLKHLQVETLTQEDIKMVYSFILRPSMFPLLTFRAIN
The experiment in a line: V79 MZh 11B1 cells inhibition test. It counts as cell-based. Particulars: for IC50: hamster fibroblasts which express human CYP11B1, deoxycorticosterone substrate 100 nM, read-out: IC50 V79 11B1 hCYP11B1. As for the experimental part:
(§1) Both cell lines were cultured in DMEM^+ containing […] and the antibiotics penicillin and streptomycin (10%) for protection from bacterial contamination. The cells were passaged every 2-3 days after treatment with trypsin/EDTA because the doubling rate was 1-2 days depending on the number of cells. […] When there was further need, freshly thawed cells were employed.
Thereafter, the plate was stored at 37° C. and […] in a CO2 incubator. […] Controls without inhibitor were treated in the same way. The enzyme reactions were quenched by extracting the supernatant with 500 μl of EtOAc. The samples were centrifuged (10,000 g, 2 min), the solvent was removed and evaporated.
(§2) It was calculated by determining the percent inhibition for at least 3 different inhibitor concentrations, which must all be in the linear range of the sigmoidal IC50 curve (log C/% inhibition).
(§3) The calculation was effected by linear regression. The values determined were used only if they formed a straight line with a reliability of […].
(§4) The plate was developed twice with the mobile solvent chloroform:methanol:water (300:20:1). Unlabeled 11-deoxycorticosterone and corticosterone were applied as a reference for the CYP11B1 reaction. For the CYP11B2 reaction, 11-deoxycorticosterone, corticosterone, 18-hydroxycorticosterone and aldosterone were used as references. The detection of the unlabeled references was effected at 260 nm. Subsequently, imaging plates (BAS MS2340, for ^14C samples, Raytest, Straubenhardt, Germany) were exposed to the HPTLC plates for 48 h. The imaging plates were scanned with the phosphoimager system Fuji FLA 3000 (Raytest, Straubenhardt, Germany), and the steroids were quantified.

Data set [2] addresses T2, human CYP11B2 (Homo sapiens, UniProt P19099).
T2 sequence (P19099 25-503): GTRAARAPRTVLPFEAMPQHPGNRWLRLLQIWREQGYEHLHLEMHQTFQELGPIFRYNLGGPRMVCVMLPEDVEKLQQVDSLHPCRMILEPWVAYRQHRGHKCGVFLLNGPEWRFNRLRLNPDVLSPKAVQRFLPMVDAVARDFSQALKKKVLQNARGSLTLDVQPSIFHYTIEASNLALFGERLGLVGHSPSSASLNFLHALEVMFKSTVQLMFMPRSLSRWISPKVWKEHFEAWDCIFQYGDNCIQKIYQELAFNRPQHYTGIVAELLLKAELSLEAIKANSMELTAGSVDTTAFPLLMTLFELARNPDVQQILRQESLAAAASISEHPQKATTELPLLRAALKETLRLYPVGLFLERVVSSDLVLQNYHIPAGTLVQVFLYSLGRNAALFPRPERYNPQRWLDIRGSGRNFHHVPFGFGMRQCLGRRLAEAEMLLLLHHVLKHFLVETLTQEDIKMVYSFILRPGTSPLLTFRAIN
The experiment in a line: V79 MZh 11B2 cells inhibition test. Type of data set: cell-based. More on the design: expressed in transfected cells; host or cells: V79 MZh11B2 (Chinese hamster lung fibroblasts). Particulars: for IC50: hamster fibroblasts which express human CYP11B2, deoxycorticosterone substrate 100 nM, read-out: IC50 V79 11B2 hCYP11B2. As for the experimental part: as §1
Thereafter, the plate was stored at 37° C. and […] in a CO2 incubator. The V79 MZh 11B1 cells were incubated for 120 min, and the V79 MZh 11B2 cells were incubated for 40 min. Controls without inhibitor were treated in the same way. The enzyme reactions were quenched by extracting the supernatant with 500 μl of EtOAc. The samples were centrifuged (10,000 g, 2 min), the solvent was removed and evaporated.
For V79 MZh11B2, the conversion rate was obtained in accordance with equation 3: […]
as §2, §3, §4

The target of data set [3] is T2, human CYP11B2. The experiment in a line: Screening test in transgenic fission yeast (S. pombe PE1) expressing human CYP11B2. It counts as cell-based. More on the design: expressed in transfected cells. Particulars: S. pombe cells which express human CYP11B2, deoxycorticosterone substrate 100 nM, inhibitor 500 nM. As for the experimental part: 492.5 μl of this cell suspension was admixed with 5 μl of inhibitor solution (50 μM of the compound to be tested in ethanol or DMSO) and incubated at 32° C. for 15 min. Controls were admixed with 5 μl of ethanol. […] The test was quenched by extracting the sample with 500 μl of EtOAc. After centrifugation (10,000 g, 2 min), the EtOAc phase was removed and evaporated to dryness. […] The reaction of the substrate to form corticosterone was analyzed by HPTLC (see below).
The quantification of the spots for the substrate deoxycorticosterone and the products corticosterone (and, if detectable, 18-hydroxycorticosterone and aldosterone) was effected with the related evaluation program AIDA. […] The calculation of the conversion rate was effected according to equation 1.
as §4

Data set [4] deals with T3, human CYP17 (Homo sapiens, UniProt P05093).
T3 construct: made in house; host or cells: E. coli pJL17/OR (membrane fraction)
T3 sequence (P05093 1-508): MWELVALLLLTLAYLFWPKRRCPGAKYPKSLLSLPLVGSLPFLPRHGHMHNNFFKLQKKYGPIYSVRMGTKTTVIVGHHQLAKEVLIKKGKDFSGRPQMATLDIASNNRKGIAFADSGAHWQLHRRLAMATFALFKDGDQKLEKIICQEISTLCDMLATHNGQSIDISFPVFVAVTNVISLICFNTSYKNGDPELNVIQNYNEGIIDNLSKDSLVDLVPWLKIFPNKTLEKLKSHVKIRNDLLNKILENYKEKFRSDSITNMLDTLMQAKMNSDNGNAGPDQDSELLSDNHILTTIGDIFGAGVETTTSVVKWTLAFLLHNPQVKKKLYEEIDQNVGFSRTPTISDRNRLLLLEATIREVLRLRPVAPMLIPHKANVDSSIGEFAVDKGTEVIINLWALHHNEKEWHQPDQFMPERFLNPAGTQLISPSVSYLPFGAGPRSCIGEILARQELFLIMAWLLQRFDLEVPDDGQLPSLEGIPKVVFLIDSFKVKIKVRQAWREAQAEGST
The data set is described as follows: Percent inhibition of CYP17 (membrane fraction of E. coli pJL17/OR). Type of data set: biochemical. Particulars: E. coli which expresses human CYP17; 5 mg/ml protein; progesterone substrate 2.5 μM; inhibitor 2.5 μM; read-out: % Inhibition human CYP17. As for the experimental part:
The recombinantly altered E. coli strain pJL17/OR, in which human CYP17 and rat NADPH-P450-reductase were coexpressed, was grown and stored according to the method of Ehmer et al. (Ehmer, P. B. et al., J. Steroid Biochem. Mol. Biol. 75: 57-63 (2000)). For isolating the membrane fraction, 5 ml of the bacterial cell suspension with an OD578 of 50 was washed with phosphate buffer (0.05 M; pH 7.4; 1 mM MgCl2; 0.1 mM EDTA and 0.1 mM DTT). The bacteria were removed by centrifugation and resuspended in 10 ml of ice cold TES buffer (0.1 M tris-acetate; pH 7.8; 0.5 mM EDTA; 0.5 M sucrose). Four milligrams of lysozyme in 10 ml of ice cold water was added to obtain a final concentration of 0.2 mg/ml. This was followed by incubation for 30 minutes under continued shaking on ice. The spheroblasts were obtained by a renewed centrifugation step at 12,000 g for 10 min and again resuspended in 3 ml of ice cold phosphate buffer (composition see above, additionally 0.5 mM PMSF).
After freezing and thawing, the cells were lysed on ice with an ultrasonic disintegrator. The whole cells and the cell debris were centrifuged off at 3000 g for 7 min. The supernatant was again centrifuged at 50,000 g for 20 min at 4° C. A membrane pellet sedimented and was resuspended in 2 ml of phosphate buffer (composition see above) with […] by means of an Ultra-Turrax mixer. […] Aliquots with an approximate protein concentration of 5 mg/ml were stored at −70° C. until use.
Control incubations were performed in parallel with 5 μl DMSO without urea. The reaction was started by adding 50 μl of a membrane suspension diluted 1 to 5 in phosphate buffer (0.8 to 1 mg of protein per ml). After thoroughly mixing the components, the mixture was incubated at 37° C. for 30 min.
The steroids were extracted with 1 ml of EtOAc. […] After the centrifugation, 800 μl of the organic phase was removed, placed into a new vessel and evaporated to dryness. The samples were dissolved in 50 μl of a water-methanol mixture (1:1) and analyzed by HPLC. The substrate conversion was calculated from the ratio of the areas of the product peaks (17α-hydroxyprogesterone and 16α-hydroxyprogesterone) to that of the substrate peak. The activity of the inhibitors was calculated from the reduced substrate conversion after the addition of inhibitors in accordance with the following formula: […]

In data set [5] the target is T4, human placental CYP19 (Homo sapiens, UniProt P11511).
T4 construct: The enzyme was obtained from the microsome fraction of fresh human placenta; from tissue; host or cells: human placenta, microsomal fraction
T4 sequence (P11511 1-503): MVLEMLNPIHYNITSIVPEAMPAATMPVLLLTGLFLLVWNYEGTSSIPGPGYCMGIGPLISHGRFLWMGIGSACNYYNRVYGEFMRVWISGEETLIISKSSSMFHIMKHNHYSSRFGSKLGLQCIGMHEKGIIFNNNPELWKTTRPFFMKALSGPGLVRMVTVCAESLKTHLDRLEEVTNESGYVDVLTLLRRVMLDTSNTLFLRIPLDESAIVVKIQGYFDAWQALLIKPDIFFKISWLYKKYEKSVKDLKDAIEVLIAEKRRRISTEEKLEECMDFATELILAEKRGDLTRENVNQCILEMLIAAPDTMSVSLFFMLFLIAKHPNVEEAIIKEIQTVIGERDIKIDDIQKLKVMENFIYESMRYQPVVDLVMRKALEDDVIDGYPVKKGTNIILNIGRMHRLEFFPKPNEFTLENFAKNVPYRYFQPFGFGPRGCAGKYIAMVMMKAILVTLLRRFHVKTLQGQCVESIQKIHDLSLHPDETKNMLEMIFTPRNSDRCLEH
The experiment in a line: IC50 of CYP19 (human placental microsomes). It counts as biochemical. Particulars: human placental CYP19; testosterone substrate 2.5 μM. As for the experimental part: The isolated microsomes were suspended in a minimum volume of phosphate buffer (0.05 M; pH 7.4; […]). In addition, DTT (10 mM) and EDTA (1 mM) were added to protect the enzyme from degradation reactions.
[…] […] The compounds to be tested were dissolved in DMSO and diluted with buffer to the desired concentration. The final DMSO concentration of the control and inhibitor incubations was about 20%. Each vessel was preincubated in a water bath at 30° C. for 5 min. The reaction was started by adding the microsomal protein (0.1 mg). The total volume of each mixture was 200 μl. After 14 min, the reaction was quenched by adding 200 μl of ice cold 1 mM HgCl2 solution. Two hundred microliters of a 2% aqueous suspension of dextran-coated charcoal, DCC) was added for absorbing the steroids, and the vessels were shaken for 20 min. Thereafter, the charcoal was centrifuged off at 1500 g for 5 min. The radioactive water present in the supernatant (^3H2O) was assayed by scintillation measurement using an LKB-Wallac beta counter. The calculation of the IC50 values was effected by a semilogarithmic plot of the percent inhibition against the inhibitor concentration.

Structures can show the parent of a compound that is named as a salt.

Regarding `Fc1ccc2c(c1)CC/C2=C/c1cccc2cnccc12` (as salt: hydrochloride) [Compound 30b, 5-[(Z)-(5-Fluoro-2,3-dihydro-1H-indane-1-ylidene)methyl]isoquinoline Hydrochloride], the melting point amounted to 201 °C.
Same read-out and setting: under `Fc1ccc2c(c1)CC/C2=C\c1cccnc1` (as salt: hydrochloride) [Compound 5a, 3-[(E)-(5-Fluoro-2,3-dihydro-1H-indane-1-ylidene)methyl]pyridine Hydrochloride] stands 245 °C; under `N#Cc1ccc2c(c1)/C(=C\c1cnc[nH]1)CCC2.O=C(O)C(=O)O`, 197 °C.
For the compound `c1cncc(-c2ccc3cccc4c3c2CC4)c1` [Compound 50, 3-(1,2-Dihydroacenaphthylene-3-yl)pyridine], the “Inhibition of human CYP11B1, in words” value in data set [1] (V79 cells) is on record as “very weak inhibition”. The concentration for half-maximal inhibition (IC50) in data set [1] came to 2450 nM; in data set [2] it was 10 nM. Further, the “Selectivity factor IC50 (CYP11B1)/IC50 (CYP11B2)” value in data set [2] (V79 cells expressing human CYP11B1 or CYP11B2) is given as 245.
`C/C(=C1/CCc2ccccc21)c1cccnc1.Cl` [Compound 38a, 3-[(1E)-1-(2,3-Dihydro-1H-indane-1-ylidene)ethyl]pyridine Hydrochloride]: the IC50 in data set [1] stood at 159 nM; in data set [2], 96.1 nM. Moreover, in data set [3], the “% Inhibition human hCYP11B2” value stood at 67%.
On to `C(=C1/CCc2ccccc21)/c1ccncc1` [Compound 2a, 4-[(E)-2,3-Dihydro-1H-indane-1-ylidenemethyl]pyridine Oxalate], for which the inhibition at 2.5 µM in data set [4] was found to be 8%. For the same compound, the IC50 in data set [5] was 6700 nM. Besides, in data set [3] (read-out: % Inhibition human hCYP11B2), the inhibition at 0.5 µM was 55%.

For the origin of these results see patent US20090105278A1, “Selective inhibitors of human corticosteroid syntheses” (Universitat Des Saarlandes, priority 2004, published 2009).
